Key:
FGF21 [1] = assay: FGF21 induction by administration of Nrf2 activator in diabetic db/db mice (plasma ELISA, hepatic qPCR); assay type: in vivo, mouse; conditions: oral 10 mg/kg once a day for 1 week
Method: (§1) FGF21 plasma concentration was measured using mouse/rat FGF21 Quantikine ELISA Kit (R & D Systems, Minneapolis, Minn., USA).
(§2) Total RNA was extracted from liver tissue using Isogen RNA extract kit (Nippon Gene), and reverse-transcribed to cDNA using SuperScript III (Invitrogen). Quantitative real-time PCR (qPCR) was carried out using TaqMan probes using an ABI 7300 system (Applied Biosystems). Relative expression of genes was normalized against Hprt (hypoxanthine guanine phosphoribosyl transferase) mRNA. The following primers and probes were used: […]
Using spontaneous diabetic db/db mice, plasma FGF21 concentration and hepatic Fgf21 gene expression level were compared after administration of the Nrf2 activator. CDDO-Im was used as the Nrf2 activator, and orally administered in 10 mg/kg, once a day for 1 week. Blood and tissue were collected under isoflurane anesthesia after certain hours from the administration, and plasma FGF21 concentration and hepatic Fgf21 mRNA expression level were measured in the same manner as in the method described in (1-2).

Nqo1 = assay: Time-course of hepatic Nqo1 gene expression after single Nrf2 activator administration; assay type: in vivo, mouse; conditions: db/db mice, single oral administration 30 μmol/kg
Method: as §2
(§3) CDDO-Im was used as the Nrf2 activator, and orally administered to db/db mice in 30 μmol/kg. Blood and tissue were collected under isoflurane anesthesia after certain hours from the administration, and expression of the Nrf2 target gene Nqo1 in liver and plasma FGF21 concentration were measured in the same manner as in the method described in (1-2). The following primers and probes were used: […]

FGF21 [2] = assay: Time-course of plasma FGF21 concentration after single Nrf2 activator administration; assay type: in vivo, mouse; conditions: db/db mice, single oral administration 30 μmol/kg
Method: as §1, §3

mouse Fgf21 reporter = assay: FGF21 promoter (mouse Fgf21 reporter) luciferase assay in Hepa1 cells; assay type: cell-based; conditions: 100 nM, 48 hours
Method: Cloning of the mouse FGF21 promoter region was performed using a known technique. By using the mouse Fgf21 […] sequence as a template, a sequence (about 2.1 kbp) amplified with the primers 1.1 and 1.2 below was cloned into pGL4.15 vector (Promega) to create a mouse Fgf21 reporter vector.
The mouse Nrf2 cDNA sequence was cloned into pcDNA3.1/V5-His B vector (Invitrogen) to create a mouse Nrf2 expression vector.
Mouse hepatoma cells Hepa1c1c7 (Hepa1) were cultured in Dulbecco's Modified Eagle medium (Wako) supplemented with 10% fetal bovine serum, and 1% penicillin-streptomycin (Gibco). The mouse Fgf21 reporter vector and mouse Nrf2 expression vector, or the mouse Fgf21 reporter vector and an empty vector (mock) were transfected into Hepa1 cells using Lipofectamine 2000 Transfection Reagent (Invitrogen). The cells were cultured for 6 hours, and the medium was removed. The cells were further cultured for 48 hours after adding a medium containing 100 nM of Nrf2 activator CDDO-Im (2-cyano-3,12-dioxooleana-1,9(11)-dien-28-oic acid imidazol) or 0.1% dimethylsulfoxide (vehicle; Wako). Luciferase activity was then measured using a luminometer (Berthold).

[3] = system: high-fat-diet (HFD)-induced obesity; conditions: repetitive administration; cited from earlier work
[4] = system: HFD-induced obesity model and diabetic db/db model mice; conditions: cited from earlier work
[5] = system: type 2 diabetes model rats; conditions: cited from earlier work
[6] = system: HFD-induced insulin resistance and obesity; conditions: cited from earlier work
[7] = system: STZ-induced type 1 diabetic mice; conditions: cited from earlier work

Compound: CC1(C)CC[C@]2(C(=O)n3ccnc3)CC[C@]3(C)[C@H](C(=O)C=C4[C@@]5(C)C=C(C#N)C(=O)C(C)(C)[C@@H]5CC[C@]43C)[C@@H]2C1 [CDDO-Im, 1-[2-cyano-3,12-dioxooleana-1,9(11)-dien-28-oyl]imidazole]
- induction of hepatic FGF21 gene expression level in Nrf2 gene knockout db/db mice (FGF21 [1]; Nrf2 gene knockout db/db mice): abolished
- induction of plasma FGF21 concentration in Nrf2 gene knockout db/db mice (FGF21 [1]; Nrf2 gene knockout db/db mice): abolished
- hepatic FGF21 gene expression level (FGF21 [1]; db/db mice, vs vehicle): significantly increased
- plasma FGF21 concentration (FGF21 [1]; db/db mice, vs vehicle): significantly increased
- Nqo1 gene expression in liver (Nqo1): increased
- time for which increased hepatic Nqo1 expression level was sustained after administration (Nqo1): 48 h
- plasma FGF21 concentration (FGF21 [2]): increased
- time postdose until which increased plasma FGF21 concentration was maintained (FGF21 [2]): 48 h
- luciferase activity enhancement compared with the vehicle (mouse Fgf21 reporter; Fgf21 reporter + empty vector (mock)): about 2 fold
- luciferase activity with transfection of mouse Nrf2 expression vector and addition of compound (mouse Fgf21 reporter; Fgf21 reporter + mouse Nrf2 expression vector): further increased
- high-fat-diet (HFD)-induced obesity [3]: prevents

Compound: COC(=O)[C@]12CCC(C)(C)C[C@H]1[C@H]1C(=O)C=C3[C@@]4(C)C=C(C#N)C(=O)C(C)(C)[C@@H]4CC[C@@]3(C)[C@]1(C)CC2 [CDDO-Me, 2-cyano-3,12-dioxooleana-1,9(11)-dien-28-oic acid methyl ester]
- blood glucose level and plasma lipid level [4]: reduce

Compound: O=C(/C=C/c1ccc(O)c2c1[C@H](C(=O)O[C@H](Cc1ccc(O)c(O)c1)C(=O)O)[C@@H](c1ccc(O)c(O)c1)O2)O[C@H](Cc1ccc(O)c(O)c1)C(=O)O [lithospermic acid B (LAB), lithospermic acid B]
- β cell injury [5]: protected β cell injury

Compound: Cc1c(-c2cnccn2)ssc1=S [oltipraz]
- HFD-induced insulin resistance and obesity [6]: attenuates

Compound: C[S+]([O-])CCCCN=C=S (stereo not drawn) [sulforaphane]
- β cell injury [7]: protected β cell injury
